Laboratory results as given in ChEMBL document CHEMBL2331486, “Identification of diaryl 5-amino-1,2,4-oxadiazoles as tubulin inhibitors: the special case of 3-(2-fluorophenyl)-5-(4-methoxyphenyl)amino-1,2,4-oxadiazole” (Bioorg Med Chem Lett, 2013).
Calls of active or inactive are those of the source. The calls are words filed in the database; no cut-off is given here.

Columns and labels:
Tubulin (Homo sapiens) [1] = target: T1, Tubulin (Homo sapiens) (UniProt P68371+Q9H4B7+P0DPH7+P68366+Q13509+Q71U36+P04350+Q3ZCM7+P07437+P68363+Q9BQE3+Q6PEY2+Q13885+Q9BVA1+Q9BUF5); conditions: at 5 µM
Description: Displacement of [3H]colchicine from tubulin (unknown origin) at 5 uM after 10 mins

[2] = Growth inhibition of human NCI60 cells; format: functional
Tubulin (Homo sapiens) [3] = target: T1, Tubulin (Homo sapiens); conditions: at 1 µM
Description: Displacement of [3H]colchicine from tubulin (unknown origin) at 1 uM after 10 mins

Tubulin = assay: Inhibition of tubulin (unknown origin) assembly after 20 mins by turbidimetric analysis; format: protein-complex assay, Homo sapiens
DU-145 [4] = assay: Growth inhibition of human DU145 cells; format: functional
PC-3 [5] = assay: Growth inhibition of human PC3 cells; format: functional
PANC-1 = assay: Growth inhibition of human PANC1 cells; format: functional
HCT-116 = assay: Growth inhibition of human HCT116 cells; format: functional
MDA-MB-231 [6] = assay: Growth inhibition of human MDA-MB-231 cells; format: functional
[7] = Growth inhibition of human KBV1a cells; format: functional; conditions: pooled result: one value given for 5 cell lines, strains, targets or settings
CAKI-1 = assay: Cytotoxicity against human Caki1 cells; format: functional
SK-MEL-28 = assay: Cytotoxicity against human SK-MEL-28 cells; format: functional
OVCAR-4 = assay: Cytotoxicity against human OVCAR4 cells; format: functional
NCI-H522 = assay: Cytotoxicity against human NCI-H522 cells; format: functional
NCI-H322M = assay: Cytotoxicity against human NCI-H322M cells; format: functional
SN12C = assay: Cytotoxicity against human SN12C cells; format: functional
SK-MEL-5 = assay: Cytotoxicity against human SK-MEL-5 cells; format: functional
[8] = Cytotoxicity against human Hs 578T cells; format: functional
UO-31 = assay: Cytotoxicity against human UO31 cells; format: functional
T47D = assay: Cytotoxicity against human T47D cells; format: functional
OVCAR-5 = assay: Cytotoxicity against human OVCAR5 cells; format: functional
NCI-H460 = assay: Cytotoxicity against human NCI-H460 cells; format: functional
MCF7 = assay: Cytotoxicity against human MCF7 cells; format: functional
HOP-92 = assay: Cytotoxicity against human HOP92 cells; format: functional
SK-OV-3 = assay: Cytotoxicity against human SKOV3 cells; format: functional
SW-620 = assay: Cytotoxicity against human SW620 cells; format: functional
SNB-75 = assay: Cytotoxicity against human SNB75 cells; format: functional
NCI-H226 = assay: Cytotoxicity against human NCI-H226 cells; format: functional
K562 = assay: Cytotoxicity against human K562 cells; format: functional
SF-539 = assay: Cytotoxicity against human SF539 cells; format: functional
RXF 393 = assay: Cytotoxicity against human RXF393 cells; format: functional
SF-268 = assay: Cytotoxicity against human SF268 cells; format: functional
OVCAR-3 = assay: Cytotoxicity against human OVCAR3 cells; format: functional
PC-3 [9] = assay: Cytotoxicity against human PC3 cells; format: functional
[10] = Cytotoxicity against human EKVX cells; format: functional
Malme-3M = assay: Cytotoxicity against human MALME-3M cells; format: functional
MOLT-4 = assay: Cytotoxicity against human MOLT4 cells; format: functional
UACC-62 = assay: Cytotoxicity against human UACC62 cells; format: functional
OVCAR-8 = assay: Cytotoxicity against human OVCAR8 cells; format: functional
U-251 = assay: Cytotoxicity against human U251 cells; format: functional
A549 = assay: Cytotoxicity against human A549 cells; format: functional
UACC-257 = assay: Cytotoxicity against human UACC257 cells; format: functional
CCRF-CEM = assay: Cytotoxicity against human CCRF-CEM cells; format: functional
MDA-MB-468 = assay: Cytotoxicity against human MDA-MB-468 cells; format: functional
IGROV-1 = assay: Cytotoxicity against human IGROV1 cells; format: functional
MDA-MB-231 [11] = assay: Cytotoxicity against human MDA-MB-231 cells; format: functional
HT-29 = assay: Cytotoxicity against human HT-29 cells; format: functional
HCT-15 = assay: Cytotoxicity against human HCT15 cells; format: functional
KM12 = assay: Cytotoxicity against human KM12 cells; format: functional
SF-295 = assay: Cytotoxicity against human SF295 cells; format: functional
SNB-19 = assay: Cytotoxicity against human SNB19 cells; format: functional
MDA-MB-435 = assay: Cytotoxicity against human MDA-MB-435 cells; format: functional
A498 = assay: Cytotoxicity against human A498 cells; format: functional
ACHN = assay: Cytotoxicity against human ACHN cells; format: functional
RPMI-8226 = assay: Cytotoxicity against human RPMI8226 cells; format: functional
COLO 205 = assay: Cytotoxicity against human COLO205 cells; format: functional
HL-60(TB) = assay: Cytotoxicity against human HL-60(TB) cells; format: functional
HOP-62 = assay: Cytotoxicity against human HOP62 cells; format: functional
TK-10 = assay: Cytotoxicity against human TK10 cells; format: functional
SK-MEL-2 = assay: Cytotoxicity against human SK-MEL-2 cells; format: functional
DU-145 [12] = assay: Cytotoxicity against human DU145 cells; format: functional

COc1cccc(-c2noc(Nc3ccc(OC)c(Cl)c3)n2)c1
inhibition (Tubulin (Homo sapiens) [1]): 73% | GI50 [2]: 562 nM | inhibition (Tubulin (Homo sapiens) [3]): 36% | IC50 (Tubulin): 2300 nM

CCOC(=O)c1cccc(Nc2nc(-c3ccc(OC)cc3)no2)c1
inhibition (Tubulin (Homo sapiens) [1]): inactive | inhibition (Tubulin (Homo sapiens) [3]): inactive

CCOc1ccc(Nc2nc(-c3cccc(OC)c3)no2)cc1
inhibition (Tubulin (Homo sapiens) [1]): 78% | GI50 [2]: 851 nM | inhibition (Tubulin (Homo sapiens) [3]): 37% | IC50 (Tubulin): 1600 nM

CCOc1ccc(Nc2nc(-c3ccccc3)no2)cc1
inhibition (Tubulin (Homo sapiens) [1]): 82% | inhibition (Tubulin (Homo sapiens) [3]): 49% | IC50 (Tubulin): 1200 nM

COc1cccc(-c2noc(Nc3ccc(C)cc3)n2)c1OC
inhibition (Tubulin (Homo sapiens) [1]): 52% | GI50 [2]: 2630 nM | inhibition (Tubulin (Homo sapiens) [3]): 24% | IC50 (Tubulin): 3600 nM

CCc1ccc(Nc2nc(-c3cccc(OC)c3)no2)cc1
inhibition (Tubulin (Homo sapiens) [1]): 81% | inhibition (Tubulin (Homo sapiens) [3]): 40% | IC50 (Tubulin): 1600 nM

COc1ccc(Nc2nc(-c3cccc(OC)c3)no2)cc1
inhibition (Tubulin (Homo sapiens) [1]): 90% | GI50 (DU-145 [4]): 9.77 nM | inhibition (Tubulin (Homo sapiens) [3]): 58% | GI50 (PC-3 [5]): 9.77 nM | IC50 (Tubulin): 1900 nM | GI50 (PANC-1): 9.77 nM | GI50 (HCT-116): 9.77 nM | GI50 (MDA-MB-231 [6]): 9.77 nM

Fc1ccccc1Nc1nc(-c2ccccc2)no1
inhibition (Tubulin (Homo sapiens) [1]): inactive | inhibition (Tubulin (Homo sapiens) [3]): inactive

COc1ccc(OC)c(-c2noc(Nc3ccc4c(c3)OCO4)n2)c1
inhibition (Tubulin (Homo sapiens) [1]): 52% | GI50 [2]: 6460 nM | inhibition (Tubulin (Homo sapiens) [3]): 21% | IC50 (Tubulin): 2500 nM

COc1ccc(-n2cnnc2-c2cc(OC)c(OC)c(OC)c2)cc1F
GI50 [7]: 556 nM

COc1ccc(OC)c(-c2noc(Nc3ccc(C)c(F)c3)n2)c1
inhibition (Tubulin (Homo sapiens) [1]): 53% | inhibition (Tubulin (Homo sapiens) [3]): inactive | IC50 (Tubulin): 3500 nM

Cc1ccc(Nc2nc(-c3ccccc3)no2)cc1
inhibition (Tubulin (Homo sapiens) [1]): 88% | inhibition (Tubulin (Homo sapiens) [3]): 61% | IC50 (Tubulin): 1400 nM

COc1cccc(-c2noc(Nc3ccc4c(c3)OCCO4)n2)c1
inhibition (Tubulin (Homo sapiens) [1]): 76% | inhibition (Tubulin (Homo sapiens) [3]): 38% | IC50 (Tubulin): 1900 nM

COc1ccc(/C=C\c2cc(OC)c(OC)c(OC)c2)cc1O [COMBRETASTATIN A4]
GI50 [2]: 14.8 nM

CCc1ccc(Nc2nc(-c3ccccc3F)no2)cc1
inhibition (Tubulin (Homo sapiens) [1]): 73% | inhibition (Tubulin (Homo sapiens) [3]): 41% | IC50 (Tubulin): 2700 nM

Cc1ccc(Nc2nc(-c3ccccc3F)no2)cc1
inhibition (Tubulin (Homo sapiens) [1]): 85% | GI50 [2]: 603 nM | inhibition (Tubulin (Homo sapiens) [3]): 57% | IC50 (Tubulin): 1600 nM

CCOc1ccc(Nc2nc(-c3ccccc3F)no2)cc1
inhibition (Tubulin (Homo sapiens) [1]): 76% | inhibition (Tubulin (Homo sapiens) [3]): 42% | IC50 (Tubulin): 1700 nM

COc1ccc(Nc2nc(-c3ccccc3F)no2)cc1
GI50 (CAKI-1): 64.6 nM | GI50 (SK-MEL-28): 339 nM | inhibition (Tubulin (Homo sapiens) [1]): 91% | GI50 (OVCAR-4): 776 nM | GI50 (NCI-H522): 19.9 nM | GI50 (NCI-H322M): 501 nM | GI50 (SN12C): 240 nM | GI50 (SK-MEL-5): 151 nM | GI50 [8]: 389 nM | GI50 (UO-31): 339 nM | GI50 (T47D): 15100 nM | GI50 (OVCAR-5): 724 nM | GI50 (NCI-H460): 61.7 nM | GI50 (MCF7): 263 nM | GI50 [2]: 204 nM | GI50 (HOP-92): 3800 nM | GI50 (SK-OV-3): 204 nM | GI50 (SW-620): 47.9 nM | GI50 (SNB-75): 141 nM | inhibition (Tubulin (Homo sapiens) [3]): 68% | GI50 (NCI-H226): 2190 nM | GI50 (K562): 30.9 nM | GI50 (SF-539): 107 nM | GI50 (RXF 393): 155 nM | GI50 (SF-268): 501 nM | GI50 (OVCAR-3): 38 nM | GI50 (PC-3 [9]): 447 nM | GI50 [10]: 1510 nM | GI50 (Malme-3M): 58.9 nM | GI50 (MOLT-4): 91.2 nM | GI50 (UACC-62): 53.7 nM | GI50 (OVCAR-8): 209 nM | GI50 (U-251): 60.3 nM | GI50 (A549): 91.2 nM | GI50 (UACC-257): 14100 nM | IC50 (Tubulin): 1100 nM | GI50 (CCRF-CEM): 138 nM | GI50 (MDA-MB-468): 1070 nM | GI50 (IGROV-1): 389 nM | GI50 (MDA-MB-231 [11]): 676 nM | GI50 (HT-29): 34.7 nM | GI50 (HCT-15): 85.1 nM | GI50 (KM12): 112 nM | GI50 (SF-295): 61.7 nM | GI50 (SNB-19): 87.1 nM | GI50 (MDA-MB-435): 19.9 nM | GI50 (A498): 229 nM | GI50 (ACHN): 490 nM | GI50 (RPMI-8226): 372 nM | GI50 (COLO 205): 126 nM | GI50 (HL-60(TB)): 25.7 nM | GI50 (HOP-62): 135 nM | GI50 (TK-10): 832 nM | GI50 (SK-MEL-2): 39.8 nM | GI50 (DU-145 [12]): 141 nM

COc1ccc(-n2cnnc2-c2cc(OC)c(OC)c(OC)c2)cc1
GI50 [7]: 464 nM

COc1ccc(Nc2nc(-c3ccccc3)no2)cc1Cl
inhibition (Tubulin (Homo sapiens) [1]): 80% | inhibition (Tubulin (Homo sapiens) [3]): 52% | IC50 (Tubulin): 1700 nM

COc1cccc(-c2noc(Nc3ccc(C)cc3)n2)c1
inhibition (Tubulin (Homo sapiens) [1]): 85% | inhibition (Tubulin (Homo sapiens) [3]): 56% | IC50 (Tubulin): 1500 nM

COc1ccc(Nc2nc(-c3cccc(OC)c3OC)no2)cc1
inhibition (Tubulin (Homo sapiens) [1]): 68% | GI50 [2]: 245 nM | inhibition (Tubulin (Homo sapiens) [3]): 31% | IC50 (Tubulin): 2600 nM

COc1ccc(OC)c(-c2noc(Nc3ccc4c(c3)OCCO4)n2)c1
inhibition (Tubulin (Homo sapiens) [1]): 50% | inhibition (Tubulin (Homo sapiens) [3]): 23% | IC50 (Tubulin): 3500 nM

COc1cccc(-c2noc(Nc3ccc4c(c3)OCO4)n2)c1
inhibition (Tubulin (Homo sapiens) [1]): 76% | GI50 [2]: 1230 nM | inhibition (Tubulin (Homo sapiens) [3]): 40% | IC50 (Tubulin): 2200 nM

COc1ccc(OC)c(Nc2nc(-c3cccc(OC)c3OC)no2)c1
inhibition (Tubulin (Homo sapiens) [1]): inactive | inhibition (Tubulin (Homo sapiens) [3]): inactive

CCc1ccc(Nc2nc(-c3cc(OC)ccc3OC)no2)cc1
inhibition (Tubulin (Homo sapiens) [1]): 65% | GI50 [2]: 575 nM | inhibition (Tubulin (Homo sapiens) [3]): 36% | IC50 (Tubulin): 1800 nM

Cc1ccc(Nc2nc(-c3ccccc3F)no2)cc1F
inhibition (Tubulin (Homo sapiens) [1]): 81% | GI50 [2]: 851 nM | inhibition (Tubulin (Homo sapiens) [3]): 52% | IC50 (Tubulin): 1600 nM

CCOc1ccc(Nc2nc(-c3cccc(OC)c3OC)no2)cc1
inhibition (Tubulin (Homo sapiens) [1]): 56% | inhibition (Tubulin (Homo sapiens) [3]): 20% | IC50 (Tubulin): 1800 nM
